Results as given in patent publication US8173684B2, “Pyridone derivatives as p38α MAPK inhibitors” (Astellas Pharma Inc., priority 2007, dated 2012).

System: TNF-α production in THP-1 cells
Assay: Test 1: Inhibition of TNF-α production in THP-1 cells
Assay type: cell-based
Settings: Homo sapiens; 100 nM test compound; LPS (10 μg/mL) stimulated THP-1 cells, 20 hr; TNF-α in supernatant vs 0.1% DMSO control
Experimental: Test 1: Inhibition of TNF-α Production in THP-1 Cells
THP-1 cells, a human monocytic cell line, were maintained in RPMI 1640 (Sigma R8758) supplemented with penicillin (50 U/mL), streptomycin (50 μg/mL) and 10% fetal bovine serum (Moregate BioTech.) at 37° C., 5% CO2 in a humidified incubator. Initial stock solutions of test compounds were made in DMSO. All cells, reagents and test compounds were diluted into culture media. THP-1 cells (1×10^5 cells/well final) and lipopolysaccharide (LPS; 10 μg/mL final; Sigma L-4005, from E. coli serotype 0.55:B5) were added to 96 well polypropylene culture plates (Sumilon, MS-8196F5; sterile) containing test compound or 0.1% DMSO vehicle. The cell mixture was incubated for 20 hr in a humidified incubator at 37° C., 5% CO2. The culture supernatants were harvested and TNF-α levels from LPS stimulated cells in the presence of 100 nM test compound was calculated compared with control cells stimulated in the presence of 0.1% DMSO.

Compound | inhibition at 0.1 µM [%]
O=C(Nc1cc(C(=O)NC2CC2)ccc1Cl)c1ccc(=O)n(-c2c(Cl)cccc2Cl)c1 [Example 1, N-{2-chloro-5-[(cyclopropylamino)carbonyl]phenyl}-1-(2,6-dichlorophenyl)-6-oxo-1,6-dihydro-3-pyridinecarboxamide] | 77
CONC(=O)c1ccc(Cl)c(NC(=O)c2ccc(=O)n(-c3c(Cl)cccc3Cl)c2)c1 [Example 2, N-{2-Chloro-5-[(methoxyamino)carbonyl]phenyl}-1-(2,6-dichlorophenyl)-6-oxo-1,6-dihydro-3-pyridinecarboxamide] | 84
O=C(Nc1ccon1)c1ccc(Cl)c(NC(=O)c2ccc(=O)n(-c3c(Cl)cccc3Cl)c2)c1 [Example 3, N-{2-Chloro-5-[(isoxazol-3-ylamino)carbonyl]phenyl}-1-(2,6-dichlorophenyl)-6-oxo-1,6-dihydro-3-pyridinecarboxamide] | 94
Cn1ccc(NC(=O)c2ccc(Cl)c(NC(=O)c3ccc(=O)n(-c4c(Cl)cccc4Cl)c3)c2)n1 [Example 5, N-{2-Chloro-5-[(1-methyl-1H-pyrazol-3-ylamino)carbonyl]phenyl}-1-(2,6-dichlorophenyl)-6-oxo-1,6-dihydro-3-pyridinecarboxamide] | 75
Cn1nccc1NC(=O)c1ccc(Cl)c(NC(=O)c2ccc(=O)n(-c3c(Cl)cccc3Cl)c2)c1 [Example 6, N-{2-Chloro-5-[(1-methyl-1H-pyrazol-5-ylamino)carbonyl]phenyl}-1-(2,6-dichlorophenyl)-6-oxo-1,6-dihydro-3-pyridinecarboxamide] | 82
O=C(Nc1cc(C(=O)NC2CC2)ccc1Br)c1ccc(=O)n(-c2c(F)cccc2F)c1 [Example 15, N-{2-Bromo-5-[(cyclopropylamino)carbonyl]phenyl}-1-(2,6-difluorophenyl)-6-oxo-1,6-dihydro-3-pyridinecarboxamide] | 69
O=C(Nc1cc(C(=O)NC2CC2)ccc1Cl)c1ccc(=O)n(-c2c(F)cccc2Cl)c1 [Example 16, N-{2-Chloro-5-[(cyclopropylamino)carbonyl]phenyl}-1-(2-chloro-6-fluorophenyl)-6-oxo-1,6-dihydro-3-pyridinecarboxamide] | 72
O=C(Nc1cc(C(=O)NC2CC2)ccc1Cl)c1ccc(=O)n(-c2cccc(F)c2F)c1 [Example 17, N-{2-Chloro-5-[(cyclopropylamino)carbonyl]phenyl}-1-(2,3-difluorophenyl)-6-oxo-1,6-dihydro-3-pyridinecarboxamide] | 75
Cc1ccc(C(=O)NC2CC2)cc1NC(=O)c1ccc(=O)n(-c2c(Cl)cccc2Cl)c1 [Example 18, N-{5-[(cyclopropylamino)carbonyl]-2-methylphenyl}-1-(2,6-dichlorophenyl)-6-oxo-1,6-dihydro-3-pyridinecarboxamide] | 78
Cc1ccc(C(=O)NC2CC2)cc1NC(=O)c1ccc(=O)n(C(C)(C)C)c1 [Example 20, N-{5-[(cyclopropylamino)carbonyl]-2-methylphenyl}-1-tert-butyl-6-oxo-1,6-dihydro-3-pyridinecarboxamide] | 85
Cc1ccc(C(=O)NC2CC2)cc1NC(=O)c1ccc(=O)n(-c2c(F)cccc2F)c1 [Example 22, N-{5-[(Cyclopropylamino)carbonyl]-2-methylphenyl}-1-(2,6-difluorophenyl)-6-oxo-1,6-dihydro-3-pyridinecarboxamide] | 97
Cc1ccc(C(=O)NC2CC2)cc1NC(=O)c1ccc(=O)n(C(C)c2ccccc2)c1 (centres unmarked) [Example 24, N-{5-[(Cyclopropylamino)carbonyl]-2-methylphenyl}-1-(1-phenylethyl)-6-oxo-1,6-dihydro-3-pyridinecarboxamide] | 83
Cc1ccc(NC(=O)C2CC2)cc1NC(=O)c1ccc(=O)n(-c2c(Cl)cccc2Cl)c1 [Example 25, N-{5-[(cyclopropylcarbonyl)amino]-2-methylphenyl}-1-(2,6-dichlorophenyl)-6-oxo-1,6-dihydro-3-pyridinecarboxamide] | 70
Cc1ccc(-n2nc(C(C)(C)C)cc2NC(=O)Nc2ccc(C)c(NC(=O)c3ccc(=O)n(-c4c(Cl)cccc4Cl)c3)c2)cc1 [Example 26, N-[5-[({[3-tert-butyl-1-(4-methylphenyl)-1H-pyrazol-5-yl]amino]carbonyl)amino]-2-methylphenyl}-1-(2,6-dichlorophenyl)-6-oxo-1,6-dihydro-3-pyridinecarboxamide] | 68
